Results as given in patent publication US20030087881A1, “Irreversible inhibitors of tyrosine kinases” (priority 1997, published 2003).

Assays:
[1] = biological target: Human EGF receptor tyrosine kinase (Homo sapiens, UniProt P00533); settings: read-out: IC50 (nM) EGFr (isolated enzyme assay); isolated enzyme from A431 cells; 10 μM ATP
Procedure: Human EGF receptor tyrosine kinase was isolated from A431 human epidermoid carcinoma cells by the following method. Cells were grown in roller bottles in dMEM/F12 media (Gibco/BRL) containing 10% fetal calf serum. Approximately 10^9 cells were lysed in 2 volumes of buffer containing 20mM N-[2-hydroxyethyl]piperazine-N′-[2-ethane sulfonic acid](Hepes), pH 7.4, 5 mM ethylene glycol-bis(β-aminoethyl ether) N,N,N′,N′-tetraacetic acid (EGTA), 1% Triton X-100, 10% glycerol, 0.1 mM sodium orthovanadate, 5 mM sodium fluoride, 4 mM pyrophosphate, 4 mM benzamide, 1 mM dithiothreitol (DTT), 80 μg/mL aprotinin, 40 μg/mL leupeptin, and 1 mM phenylmethyl sulfonyl fluoride (PMSF). After centrifugation at 25,000×g for 10 minutes, the supernatant was applied to a fast Q sepharose column (Pharmacia Biotech., Inc., Piscataway, N.J.) and eluted with a linear gradient from 0.1 M NaCl to 0.4 M NaCl in 50 mM Hepes, 10% glycerol, pH 7.4. Enzyme active fractions were pooled, divided into aliquots, and stored at −100° C.
Enzyme assays for IC50determinations were performed in 96-well filter plates (Millipore MADVN6550, Millipore, Bedford, Mass.). […] The wells are then washed 5 times with 0.2 mL of 10% TCA and ^32P incorporation determined with a Wallac beta plate counter (Wallac, Inc., Gaithersburg, Pa.).

[2] = system: A431 human epidermoid carcinoma cells; experiment: cells; settings: A-431, read-out: IC50 (nM) A431 Cell Autophosphorylation Assay
Procedure: (§1) Extracts were made by lysing the monolayers in 0.2 mL of boiling Laemlli buffer (2% sodium dodecyl sulfate, 5% beta-mercaptoethanol, 10% glycerol and 50 mM tris[hydroxymethyl]aminomethane (Tris), pH 6.8), and the lysates were heated to 100° C. for 5 minutes. Proteins in the lysate were separated by polyacrylamide gel electrophoresis and electrophoretically transferred to nitrocellulose. The membrane was washed once in 10 mM Tris, pH 7.2, 150 mM NaCl, 0.01% Azide (TNA), and blocked overnight in TNA containing 5% bovine serum albumin and 1% ovalbumin. The membrane was blotted for 2 hours with antiphosphotyrosine antibody (UBI, 1 μg/mL in blocking buffer) and then washed twice in TNA, once in TNA containing 0.05% Tween-20 detergent and 0.05% nonidet P-40 detergent and twice in TNA. […] Band intensities were determined with a Molecular Dynamics laser densitometer.
Duplicate sets of cells were treated with a range of concentrations of the designated compound to be tested as an inhibitor for 15 minutes. The cells were then stimulated with 100 ng/mL of EGF for 5 minutes and extracts made as described under the Western Blotting Procedure.

[3] = system: A431 human epidermoid carcinoma cells; settings: 2 μM compound for 1 or 2 hours, washed free, EGF stimulation
Procedure: as §1

Sequence of Human EGF receptor tyrosine kinase (P00533 25-1210): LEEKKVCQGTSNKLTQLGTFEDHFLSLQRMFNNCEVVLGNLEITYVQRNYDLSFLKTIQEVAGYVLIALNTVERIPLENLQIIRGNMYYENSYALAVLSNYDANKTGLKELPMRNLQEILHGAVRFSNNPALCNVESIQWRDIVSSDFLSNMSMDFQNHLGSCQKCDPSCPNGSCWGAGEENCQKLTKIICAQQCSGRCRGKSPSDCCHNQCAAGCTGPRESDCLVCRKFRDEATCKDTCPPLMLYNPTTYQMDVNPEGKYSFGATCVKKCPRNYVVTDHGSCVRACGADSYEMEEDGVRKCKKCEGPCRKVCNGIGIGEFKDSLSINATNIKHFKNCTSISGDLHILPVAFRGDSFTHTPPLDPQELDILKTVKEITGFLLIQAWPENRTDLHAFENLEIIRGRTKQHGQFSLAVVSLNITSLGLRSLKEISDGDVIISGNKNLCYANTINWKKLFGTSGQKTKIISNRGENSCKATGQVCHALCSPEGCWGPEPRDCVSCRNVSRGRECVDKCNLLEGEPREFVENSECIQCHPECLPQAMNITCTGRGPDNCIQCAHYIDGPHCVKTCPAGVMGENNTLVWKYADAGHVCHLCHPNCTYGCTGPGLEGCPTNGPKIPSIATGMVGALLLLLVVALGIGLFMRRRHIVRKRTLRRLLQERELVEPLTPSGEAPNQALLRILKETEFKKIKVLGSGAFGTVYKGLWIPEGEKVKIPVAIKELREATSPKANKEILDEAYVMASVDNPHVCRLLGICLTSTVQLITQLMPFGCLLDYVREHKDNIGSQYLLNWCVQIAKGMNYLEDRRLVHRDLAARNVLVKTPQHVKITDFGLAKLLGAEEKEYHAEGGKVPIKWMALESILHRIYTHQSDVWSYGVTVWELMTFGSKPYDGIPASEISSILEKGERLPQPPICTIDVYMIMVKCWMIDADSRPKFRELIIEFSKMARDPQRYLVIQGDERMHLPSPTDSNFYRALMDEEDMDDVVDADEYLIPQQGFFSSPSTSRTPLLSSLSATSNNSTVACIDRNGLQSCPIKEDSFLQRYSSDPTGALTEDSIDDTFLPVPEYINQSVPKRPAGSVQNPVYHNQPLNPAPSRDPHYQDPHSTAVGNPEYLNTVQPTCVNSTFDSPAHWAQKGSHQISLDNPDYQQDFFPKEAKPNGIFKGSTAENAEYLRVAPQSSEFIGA

For C=CC(=O)Nc1ccc2ncnc(N3CCc4ccc(Br)cc43)c2c1 [Example 1, N-[4-(6-Bromo-2,3-dihydroindol-1-yl)quinazolin-6-yl]acrylamide], the melting point was 214 to 216 °C, the IC50 [1] was 0.4 nM and the IC50 [2] was 9.9 nM. The “Irreversibility Test” value [3] was “yes, irreversible”.
